Data: ChEMBL document CHEMBL1130374, “Resolution and biological activities of optical isomers of 1,4-diethyl-3,6-epidithiopiperazine-2,5-dione” (1997)

Legend:
Mus musculus [1] = species: Mus musculus; assay: The extent of apoptosis was determined by evaluating the subdiploid population of propidium iodide stained cells using flow cytometry after 9 hr using thymocytes from mice; assay type: functional, Thymocyte
Mus musculus [2] = species: Mus musculus; assay: Compound was evaluated for macrophage adherence in thioglycolate induced mouse macrophages; assay type: functional; conditions: read-out: ED50 (the source's name)
P815 = assay: Compound was evaluated for Thymidine incorporation in P815 cell lines; assay type: functional; conditions: Mus musculus, read-out: ED50 (the source's name)
[3] = molecular target: Creatine kinase M-type (Oryctolagus cuniculus) (UniProt P00563); assay: Compound was evaluated for interaction with the creatine kinase in rabbit muscle after 6 hr; set-up: reference not given here
Chain of Creatine kinase M-type (Oryctolagus cuniculus) (P00563 whole entry, looked up): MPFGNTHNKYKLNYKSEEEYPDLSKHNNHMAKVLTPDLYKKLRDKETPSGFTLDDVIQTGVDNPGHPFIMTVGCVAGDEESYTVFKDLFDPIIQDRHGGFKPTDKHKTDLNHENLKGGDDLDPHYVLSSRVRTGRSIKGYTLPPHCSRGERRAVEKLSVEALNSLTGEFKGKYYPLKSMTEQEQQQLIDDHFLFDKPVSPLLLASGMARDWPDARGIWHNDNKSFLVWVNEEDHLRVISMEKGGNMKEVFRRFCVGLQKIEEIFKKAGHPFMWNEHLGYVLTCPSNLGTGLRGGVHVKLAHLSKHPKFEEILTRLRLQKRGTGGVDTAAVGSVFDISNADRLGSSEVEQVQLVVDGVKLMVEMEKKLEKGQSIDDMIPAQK

SMILES	Activity (Mus musculus [1]) [%]	EC50 (Mus musculus [2]) [µM]	EC50 (P815) [µM]	Activity [3] [%]
CCN1C(=O)[C@H]2SS[C@@H]1C(=O)N2CC	53	5	50	34
CCN1C(=O)[C@@H]2SS[C@H]1C(=O)N2CC	57	8	55	34
CCN1C(=O)C2SSC1C(=O)N2CC (racemic)	54	2.5	35	35
CN1C(=O)[C@]23CC4=CC=C[C@H](O)[C@H]4N2C(=O)[C@@]1(CO)SS3 [GLIOTOXIN]	59	0.35	2	32
